Reference: patent US20050209278A1, “Piperidinyl- and piperazinyl-sulfonylmethyl hydroxamic acids and their use as protease inhibitors” (priority 2002, published 2005)
Where a name gives a salt, the structure may show the parent alone. Read-outs that look alike come from different tables or passages of the source.

Biological target: T1, MMP-2 (Homo sapiens, UniProt P08253)
T1 construct: made in house; host or cells: MMP-2-transfected p2AHT2 cells
T1 sequence (P08253 110-660): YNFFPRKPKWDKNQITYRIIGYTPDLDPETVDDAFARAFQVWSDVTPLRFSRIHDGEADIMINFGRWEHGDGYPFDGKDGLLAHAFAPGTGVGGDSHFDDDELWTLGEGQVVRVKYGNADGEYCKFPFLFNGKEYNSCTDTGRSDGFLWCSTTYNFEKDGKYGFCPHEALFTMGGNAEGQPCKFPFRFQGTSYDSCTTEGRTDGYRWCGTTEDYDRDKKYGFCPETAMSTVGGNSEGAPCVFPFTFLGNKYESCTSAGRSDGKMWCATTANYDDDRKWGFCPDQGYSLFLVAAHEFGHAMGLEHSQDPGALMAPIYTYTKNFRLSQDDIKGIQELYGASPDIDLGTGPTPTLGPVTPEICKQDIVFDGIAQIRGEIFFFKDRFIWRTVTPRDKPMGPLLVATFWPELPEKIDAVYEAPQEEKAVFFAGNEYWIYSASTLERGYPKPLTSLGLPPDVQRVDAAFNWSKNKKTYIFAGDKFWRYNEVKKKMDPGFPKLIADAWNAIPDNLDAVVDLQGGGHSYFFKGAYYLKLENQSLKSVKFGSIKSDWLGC
Assay: In vitro MMP inhibition, Ki determination (fluorogenic substrate II)
Format: biochemical
Method: Several hydroxamic acids and salts thereof were analyzed in in vitro assays to determine their ability to inhibit the MMP cleavage of peptide substrates. […] and IC50 constants were calculated from the assayed hydroxamic acid-MMP interactions.
Human recombinant MMP-1, MMP-2, MMP-9, MMP-13, and MMP-14 were used in this assay. All enzymes were prepared in Assignee's laboratories following usual laboratory procedures. Protocols for the preparation and use of these enzymes are available in the scientific literature. See, e.g., Enzyme Nomenclature (Academic Press, San Diego, Calif., 1992) (and the citations therein). See also, Freije et al., “Molecular cloning and expression of collagenase-3, a novel human matrix metalloproteinase produced by breast carcinomas,” J Biol. Chem., 269(24), 16766-16773 (1994).
The MMP-2 proenzyme was purified by gelatin Sepharose chromatography from MMP-2-transfected p2AHT2 cells provided by Dr. Gregory Goldberg of Washington University (St. Louis, Mo.).
All MMPs were activated using 4-aminophenylmercuric acetate (“APMA”, Sigma Chemical, St. Louis, Mo.) or trypsin. MMP-9 also was activated using human recombinant MMP-3 (purified in Assignee's laboratory following standard cloning and purification techniques).
Two fluorogenic, methoxycoumarin-containing polypeptide substrates were used in the MMP inhibition assays: [drawing 427] Here, “Dpa” is 3-(2,4-dinitrophenyl)-L-2,3-diaminopropionyl group, and “MCA” is 7-methoxycoumarin-4-yl acetyl. Substrate (I) was purchased from Baychem (Redwood City, Calif.), and substrate II was prepared Assignee's laboratory. Substrate I was used in the IC50 determination assays, while substrate II was used in the Ki determination assays. In the absence of MMP inhibitory activity, either substrate is cleaved at the Gly-Leu peptide bond. This cleavage separates the highly fluorogenic peptide from the 2,4-dinitrophenyl quencher, thus resulting in increase of fluorescent intensity.
The stock solutions of the assayed hydroxamic acids (or salts thereof) were prepared in 1% dimethyl sulfoxide (DMSO). These stock solutions were diluted in Buffer A (100 mM Tris-HCl, 100 mM NaCl, 10 mM CaCl2, 0.05% polyoxyethylene 23 lauryl ether, pH 7.5) to obtain solutions with different hydroxamic acid concentrations, i.e., assay solutions with different concentrations of the assayed MMP inhibitory compound. The experiment controls contained the same amount of Buffer A/DMSO as the assayed sample, but contained no hydroxamic acid (or salt thereof).
The assays from which the Ki determinations were made were performed as follows. The assayed hydroxamic acid samples were incubated in separate wells of untreated white polystyrene plates (Nunc Nalgene International, Rochester, N.Y.), and analyzed on a Tecan SpectraFlour Plus plate reader. The excitation wavelength was 330 nm, and the emission wavelength—420 nm. All samples (assayed hydroxamic acids and controls) were incubated in separate plate wells at room temperature for 1 hr in the presence of 4 μM of MMP substrate (II). In the absence of MMP inhibitory activity, substrate II was cleaved at the Gly-Leu bond resulting in an increase of relative fluorescence. Inhibition was observed as a reduced rate of this increase in relative fluorescence. The various hydroxamic acids were analyzed using a single low enzyme concentration with a single substrate concentration fixed at or below the Km. This protocol is a modification of method by Knight et al., FEBS Lett., 296(3), 263-266 (1992). Apparent inhibitory constants were determined by non-linear regression of reaction velocity as a function of inhibitor and enzyme concentration using Morrison's equation, as described by Kuzmic, Anal. Biochem. 286, 45-50 (2000). […] Since the substrate concentration was chosen to be at or below the Km, the apparent Ki's from this analysis were reported as Ki's without correction for the influence of substrate.

[1] = human recombinant enzyme, 4 μM substrate II, room temperature, 1 hr, read-out: MMP-2 Ki
[2] = value not in parenthesis, read-out: MMP-2 Ki

SMILES | Ki [1] | Ki [2] | other results
COCCN1CCC(C(=O)NO)(S(=O)(=O)N2CCN(c3ccc(OCCCC(F)(F)F)cc3)CC2)CC1 [Example 9, N-hydroxy-1-(2-methoxyethyl)-4-({4-[4-(4,4,4-trifluorobutoxy)phenyl]piperazin-1-yl}sulfonyl)piperidine-4-carboxamide Dihydrochloride] | 0.223 nM |  | 
COCCN1CCC(C(=O)NO)(S(=O)(=O)N2CCC(c3ccc(OCCCC(F)(F)F)cc3)CC2)CC1 [Example 20, N-hydroxy-1-(2-methoxyethyl)-4-({4-[4-(4,4,4-trifluorobutoxy)phenyl]piperidin-1-yl}sulfonyl)piperidine-4-carboxamide Hydrochloride] | 0.83 nM |  | 
CCCCOc1ccc(N2CCN(S(=O)(=O)C3(C(=O)NO)CCN(c4ccccn4)CC3)CC2)cc1 [Example 149] |  | 1.89 nM | 
O=C(NO)C1(S(=O)(=O)N2CCN(c3ncc(Br)cn3)CC2)CCOCC1 [Example 103] |  | 3.44 nM | 
CCCCc1cnc(N2CCN(S(=O)(=O)C3(C(=O)NO)CCOCC3)CC2)cn1 [Example 1, 4-{[4-(5-butylpyrazin-2-yl)piperazin-1-yl]sulfonyl}-N-hydroxytetrahydro-2H-pyran-4-carboxamide Dihydrochloride] | 1.52 nM |  | 
CCCCOc1ccc(N2CCN(S(=O)(=O)C3(C(=O)NO)CCN(c4nccc(C(F)(F)F)n4)CC3)CC2)cc1 [Example 130] |  | 5.23 nM | 
CCCCOc1ccc(C2CCN(S(=O)(=O)C3(C(=O)NO)CCN(CCOC)CC3)CC2)cc1 [Example 16, 4-{[4-(4-butoxyphenyl)piperidin-1-yl]sulfonyl}-N-hydroxy-1-(2-methoxyethyl)piperidine-4-carboxamide Hydrochloride] | 1.24 nM |  | 
CC(C)(C)N1CCC(C(=O)NO)(S(=O)(=O)N2CCN(c3ccc(OCCCC(F)(F)F)cc3F)CC2)CC1 [Example 116] |  | 4.31 nM | 
O=C(NO)C1(S(=O)(=O)N2CCN(c3ncccn3)CC2)CCOCC1 [Example 107] |  | 115 nM | 
O=C(NO)C1(S(=O)(=O)N2CCN(c3ccc(OCCCC(F)(F)F)cc3)CC2)CCN(C2CC2)CC1 [Example 153] |  | 0.502 nM | 
CCCCCc1ccc(N2CCN(S(=O)(=O)C3(C(=O)NO)CCN(C(=O)C(F)(F)F)CC3)CC2)cc1 [Example 21, N-hydroxy-4-{[4-(4-pentylphenyl)piperazin-1-yl]sulfonyl}-1-(trifluoroacetyl)piperidine-4-carboxamide Hydrochloride] | 3.82 nM |  | 
O=C(NO)C1(S(=O)(=O)N2CCN(c3ncccn3)CC2)CCOCC1 [Example 106] |  | 134 nM | 
CCCCOc1ccc(N2CCN(S(=O)(=O)C3(C(=O)NO)CCN(c4ncc(CC)cn4)CC3)CC2)cc1 [Example 155] |  | 1.83 nM | 
O=C(NO)C1(S(=O)(=O)N2CCN(c3ccc(-c4ccc(Cl)cc4)cn3)CC2)CCOCC1 [Example 60] |  | 0.54 nM | 
O=C1c2ccccc2C(=O)N1CCCCc1ccc(N2CCN(S(=O)(=O)C3(C(=O)NO)CCOCC3)CC2)nc1 [Example 132] |  | 1.2 nM | 
CCCCCCCCCc1cnc(N2CCN(S(=O)(=O)C3(C(=O)NO)CCOCC3)CC2)nc1 [Example 110] |  | 61.7 nM | 
CCCCCCCCCc1cnc(N2CCN(S(=O)(=O)C3(C(=O)NO)CCOCC3)CC2)nc1 [Example 111] |  | 49.6 nM | 

SMILES | Ki [1] | Ki [2] | other results
CCCCc1ccc(C2CCN(S(=O)(=O)C3(C(=O)NO)CCN(C4CC4)CC3)CC2)nc1 [Example 24, 4-{[4-(5-butylpyridin-2-yl)piperidin-1-yl]sulfonyl}-1-cyclopropyl-N-hydroxypiperidine-4-carboxamide Hydrochloride] | 0.91 nM |  | 
O=C(NO)C1(S(=O)(=O)N2CCN(c3ccc(OCC4CC4)c(F)c3)CC2)CCN(C2CC2)CC1 [Example 10, 1-cyclopropyl-4-[[4-[4-(cyclopropylmethoxy)-3-fluorophenyl]-1-piperazinyl]sulfonyl]-N-hydroxy-4-piperidinecarboxamide, dihydrochloride] | 0.52 nM |  | 
COCCN1CCC(C(=O)NO)(S(=O)(=O)N2CCN(c3ccc(OCCC(C)C)cc3)CC2)CC1 [Example 148] |  | 1.19 nM | 
CCCCOc1ccc(N2CCN(S(=O)(=O)C3(C(=O)NO)CCN(c4ccc(O)cc4)CC3)CC2)cc1 [Example 121] |  | 2.15 nM | 
O=C(c1cccnc1)N1CCC(C(=O)NO)(S(=O)(=O)N2CCN(c3ccc(OCCCC(F)(F)F)cc3)CC2)CC1 [Example 122] |  | 0.34 nM | 
CCCCc1ccc(C2CCN(S(=O)(=O)C3(C(=O)NO)CCOCC3)CC2)s1 [Example 19, 4-{[4-(5-butylthien-2-yl)piperidin-1-yl]sulfonyl}-N-hydroxytetrahydro-2H-pyran-4-carboxamide] | 2.06 nM |  | 
O=C(NO)C1(S(=O)(=O)N2CCC(c3ccc(OCC(F)(F)F)cc3)CC2)CCN(C2CC2)CC1 [Example 25, 1-cyclopropyl-N-hydroxy-4-({4-[4-(2,2,2-trifluoroethoxy)phenyl]piperidin-1-yl}sulfonyl)piperidine-4-carboxamide Hydrochloride] | 1.18 nM |  | 
COCCOc1ccc(N2CCN(S(=O)(=O)C3(C(=O)NO)CCOCC3)CC2)cc1 [Example 14, N-hydroxy-4-({4-[4-(2-methoxyethoxy)phenyl]piperazin-1-yl}sulfonyl)tetrahydro-2H-pyran-4-carboxamide Hydrochloride] | 3.84 nM |  | 
O=C(NO)C1(S(=O)(=O)N2CCN(c3ccc(COCC(F)(F)C(F)(F)C(F)(F)F)cc3)CC2)CCOCC1 [Example 69] |  |  | Ki (MMP-2 Ki, value not in parenthesis): 5.44 nM
O=C(NO)C1(S(=O)(=O)N2CCN(c3ccc(-c4ccccc4)c(F)c3)CC2)CCOCC1 [Example 12, 4-{[4-(2-fluoro-1,1′-biphenyl-4-yl)piperazin-1-yl]sulfonyl}-N-hydroxytetrahydro-2H-pyran-4-carboxamide Hydrochloride] | 0.18 nM |  | 
CC(C)CCOc1ccc(N2CCN(S(=O)(=O)C3(C(=O)NO)CCN(C4CC4)CC3)CC2)cc1 [Example 128] |  | 0.785 nM | 
CCCCOc1ccc(N2CCN(S(=O)(=O)C3(C(=O)NO)CCN(c4cnccn4)CC3)CC2)cc1 [Example 140] |  | 0.672 nM | 
CC(C)CCc1ccc(N2CCN(S(=O)(=O)C3(C(=O)NO)CCOCC3)CC2)nc1 [Example 133] |  | 0.251 nM | 
CCCCOc1ccc(N2CCN(S(=O)(=O)C3(C(=O)NO)CCN(c4cc(C)ccn4)CC3)CC2)cc1 [Example 139] |  | 2.18 nM | 
O=C(NO)C1(S(=O)(=O)N2CCN(c3ccc(OC(F)(F)C(F)F)cc3)CC2)CCOCC1 [Example 4, 4-({4-[4-(1,1,2,2-tetrafluoroethoxy)phenyl]piperazinyl}sulfonyl)perhydro-2H-pyran-4-carbohydroxamic Acid] | 0.104 nM |  | 
CCCCOc1ccc(N2CCN(S(=O)(=O)C3(C(=O)NO)CCN(c4ccc(C)nc4)CC3)CC2)cc1 [Example 131] |  | 1.39 nM | 
CCCCOc1ccc(N2CCN(S(=O)(=O)C3(C(=O)NO)CCOCC3)CC2)cc1 [Example 145] |  | 0.695 nM | 
